Measurements reported in US20250230165A1, “HETEROCYCLIC COMPOUNDS FOR USE IN THE TREATMENT OF CANCER” (ARTIOS PHARMA LIMITED, priority 2021, published 2025).

What follows are compounds tested against T1, Human Polθ polymerase domain (aa1820-2590) (Homo sapiens, UniProt O75417) (assay: Polθ Polymerase Domain Kinact/KI Assay (PicoGreen)). Details: 0.8 nM Polθ, 100 nM DNA substrate, kobs vs [I] fit for 2-step covalent inhibitor.
T1 construct: Human Polθ polymerase domain (aa1820-2590) was expressed in E. coli; made in house; host or cells: E. coli
T1 sequence (O75417 1820-2590): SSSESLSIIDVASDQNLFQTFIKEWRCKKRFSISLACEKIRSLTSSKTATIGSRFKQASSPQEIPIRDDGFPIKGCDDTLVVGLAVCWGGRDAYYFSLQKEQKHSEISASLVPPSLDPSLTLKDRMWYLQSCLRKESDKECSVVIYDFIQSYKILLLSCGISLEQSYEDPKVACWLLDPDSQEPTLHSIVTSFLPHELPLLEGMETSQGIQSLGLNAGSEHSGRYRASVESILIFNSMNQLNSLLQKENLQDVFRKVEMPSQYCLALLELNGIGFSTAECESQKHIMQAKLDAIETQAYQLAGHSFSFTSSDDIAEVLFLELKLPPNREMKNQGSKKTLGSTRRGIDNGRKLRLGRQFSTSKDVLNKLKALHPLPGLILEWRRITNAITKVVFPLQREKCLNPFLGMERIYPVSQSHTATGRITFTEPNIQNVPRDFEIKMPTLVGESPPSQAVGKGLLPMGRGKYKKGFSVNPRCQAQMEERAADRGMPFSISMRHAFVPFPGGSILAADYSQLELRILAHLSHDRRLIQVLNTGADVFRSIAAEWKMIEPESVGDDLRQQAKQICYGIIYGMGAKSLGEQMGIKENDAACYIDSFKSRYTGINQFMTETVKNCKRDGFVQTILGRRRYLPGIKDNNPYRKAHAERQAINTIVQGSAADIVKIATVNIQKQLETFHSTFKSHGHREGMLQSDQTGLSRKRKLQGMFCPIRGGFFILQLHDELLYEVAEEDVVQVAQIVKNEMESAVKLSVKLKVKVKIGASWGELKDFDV
Type: biochemical
Procedure, shortened: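 PicoGreen fluorescence read-out of primer extension; progress curves per inhibitor concentration fitted for kobs, then kobs vs [I] fitted to a two-step covalent model to give Kinact and KI. Conditions: 0.8 nM enzyme, 100 nM DNA substrate, […].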

SMILES | Kinact/Kl [M⁻¹ s⁻¹]
Cc1cc(C(F)(F)F)cc(N2C(=O)C[C@@H]3CN(CCCOC4CN(C(=O)/C=C/CN(C)C)C4)c4c(Cl)cccc4N(C)C(=O)[C@H]32)n1 [Example 44, (3aR,11aS)-6-chloro-5-(3-((1-((E)-4-(dimethylamino)but-2-enoyl)azetidin-3-yl)oxy)propyl)-10-methyl-1-(6-methyl-4-(trifluoromethyl)pyridin-2-yl)-1,3a,4,5,10,11a-hexahydro-2H-benzo[b]pyrrolo[2,3-f][1,4]diazocine-2,11(3H)-dione] | 2.22e+06
C=CC(=O)N1CCN2CCN(CCN3C[C@H]4CC(=O)N(c5cc(C(F)(F)F)cc(C)n5)[C@@H]4C(=O)N(C)c4cccc(F)c43)C(=O)[C@@H]2C1 [Example 45, (3aR,11aS)-5-(2-((S)-8-acryloyl-1-oxooctahydro-2H-pyrazino[1,2-a]pyrazin-2-yl)ethyl)-6-fluoro-10-methyl-1-(6-methyl-4-(trifluoromethyl)pyridin-2-yl)-1,3a,4,5,10,11a-hexahydro-2H-benzo[b]pyrrolo[2,3-f][1,4]diazocine-2,11(3H)-dione] | 310000
C=CC(=O)N1CCN2CCN(CCN3C[C@H]4CC(=O)N(c5cc(C(F)(F)F)cc(C)n5)[C@@H]4C(=O)N(C)c4cccc(F)c43)C(=O)[C@H]2C1 [Example 46, (3aR,11aS)-5-(2-((R)-8-acryloyl-1-oxooctahydro-2H-pyrazino[1,2-a]pyrazin-2-yl)ethyl)-6-fluoro-10-methyl-1-(6-methyl-4-(trifluoromethyl)pyridin-2-yl)-1,3a,4,5,10,11a-hexahydro-2H-benzo [b]pyrrolo[2,3-f][1,4] diazocine-2,11(3H)-dione] | 480000
C=CC(=O)N1CCN2CC(=O)N(CCN3C[C@H]4CC(=O)N(c5cc(C(F)(F)F)cc(C)n5)[C@@H]4C(=O)N(C)c4cccc(F)c43)C[C@@H]2C1 [Example 47, (3aR,11aS)-5-(2-((S)-8-acryloyl-3-oxooctahydro-2H-pyrazino[1,2-a]pyrazin-2-yl)ethyl)-6-fluoro-10-methyl-1-(6-methyl-4-(trifluoromethyl)pyridin-2-yl)-1,3a,4,5,10,11a-hexahydro-2H-benzo[b]pyrrolo[2,3-f][1,4]diazocine-2,11(3H)-dione] | 140000
C=CC(=O)N1CC(N2CCN(C(=O)CN3C[C@H]4CC(=O)N(c5cc(C(F)(F)F)cc(C)n5)[C@@H]4C(=O)N(C)c4cccc(F)c43)CC2)C1 [Example 51, (3aR,11aS)-5-(2-(4-(1-acryloylazetidin-3-yl)piperazin-1-yl)-2-oxoethyl)-6-fluoro-10-methyl-1-(6-methyl-4-(trifluoromethyl)pyridin-2-yl)-1,3a,4,5,10,11a-hexahydro-2H-benzo[b]pyrrolo[2,3-f][1,4]diazocine-2,11(3H)-dione] | 210000
C=CC(=O)N1CCN(c2cc(N3C[C@H]4CC(=O)N(c5cc(C(F)(F)F)cc(C)n5)[C@@H]4C(=O)N(C)c4cccc(F)c43)ccn2)CC1 [Example 53, (3aR,11aS)-5-(2-(4-acryloylpiperazin-1-yl)pyridin-4-yl)-6-fluoro-10-methyl-1-(6-methyl-4-(trifluoromethyl)pyridin-2-yl)-1,3a,4,5,10,11a-hexahydro-2H-benzo[b]pyrrolo[2,3-f][1,4]diazocine-2,11(3H)-dione] | 24000
C=CC(=O)N1CCN(c2cccc(N3C[C@H]4CC(=O)N(c5cc(C(F)(F)F)cc(C)n5)[C@@H]4C(=O)N(C)c4cccc(F)c43)c2)CC1 [Example 54, (3aR,11aS)-5-(3-(4-acryloylpiperazin-1-yl)phenyl)-6-fluoro-10-methyl-1-(6-methyl-4-(trifluoromethyl)pyridin-2-yl)-1,3a,4,5,10,11a-hexahydro-2H-benzo[b]pyrrolo[2,3-f][1,4]diazocine-2,11(3H)-dione] | 110000

More lines, now with the values ahead:

Kinact/Kl [M⁻¹ s⁻¹] | SMILES
110000 | C=CC(=O)N1CCN2CC(=O)N(CCN3C[C@H]4CC(=O)N(c5cc(C(F)(F)F)cc(C)n5)[C@@H]4C(=O)N(C)c4cccc(F)c43)C[C@H]2C1 [Example 48, (3aR,11aS)-5-(2-((R)-8-acryloyl-3-oxooctahydro-2H-pyrazino[1,2-a]pyrazin-2-yl)ethyl)-6-fluoro-10-methyl-1-(6-methyl-4-(trifluoromethyl)pyridin-2-yl)-1,3a,4,5,10,11a-hexahydro-2H-benzo[b]pyrrolo[2,3-f][1,4]diazocine-2,11(3H)-dione]
340000 | C=CC(=O)N1CCc2c(ncn2CCN2C[C@H]3CC(=O)N(c4cc(C(F)(F)F)cc(C)n4)[C@@H]3C(=O)N(C)c3cccc(F)c32)C1 [Example 49, (3aR,11aS)-5-(2-(5-acryloyl-4,5,6,7-tetrahydro-1H-imidazo[4,5-c]pyridin-1-yl)ethyl)-6-fluoro-10-methyl-1-(6-methyl-4-(trifluoromethyl)pyridin-2-yl)-1,3a,4,5,10,11a-hexahydro-2H-benzo[b]pyrrolo[2,3-f][1,4]diazocine-2,11(3H)-dione]
190000 | C=CC(=O)N1CCc2ncn(CCN3C[C@H]4CC(=O)N(c5cc(C(F)(F)F)cc(C)n5)[C@@H]4C(=O)N(C)c4cccc(F)c43)c2C1 [Example 50, (3aR,11aS)-5-(2-(5-acryloyl-4,5,6,7-tetrahydro-3H-imidazo[4,5-c]pyridin-3-yl)ethyl)-6-fluoro-10-methyl-1-(6-methyl-4-(trifluoromethyl)pyridin-2-yl)-1,3a,4,5,10,11a-hexahydro-2H-benzo[b]pyrrolo[2,3-f][1,4]diazocine-2,11(3H)-dione]
190000 | C=CC(=O)N1CC2(C1)CN(C(=O)CN1C[C@H]3CC(=O)N(c4cc(C(F)(F)F)cc(C)n4)[C@@H]3C(=O)N(C)c3cccc(F)c31)C[C@@H](C)N2 [Example 52, (3aR,11aS)-5-(2-((R)-2-acryloyl-6-methyl-2,5,8-triazaspiro[3.5]nonan-8-yl)-2-oxoethyl)-6-fluoro-10-methyl-1-(6-methyl-4-(trifluoromethyl)pyridin-2-yl)-1,3a,4,5,10,11a-hexahydro-2H-benzo[b]pyrrolo[2,3-f][1,4]diazocine-2,11(3H)-dione]
15000 | C=CC(=O)N1CCN(c2cccc(N3C[C@H]4CC(=O)N(c5cc(C(F)(F)F)cc(C)n5)[C@@H]4C(=O)N(C)c4cccc(F)c43)n2)CC1 [Example 55, (3aR,11aS)-5-(6-(4-acryloylpiperazin-1-yl)pyridin-2-yl)-6-fluoro-10-methyl-1-(6-methyl-4-(trifluoromethyl)pyridin-2-yl)-1,3a,4,5,10,11a-hexahydro-2H-benzo[b]pyrrolo[2,3-f][1,4]diazocine-2,11(3H)-dione]
36000 | C=CC(=O)N1CCN(c2cccc(N3C[C@H]4CC(=O)N(c5cc(C(F)(F)F)cc(C)n5)[C@@H]4C(=O)N(C)c4cccc(Cl)c43)n2)CC1 [Example 56, (3aR,11aS)-5-(6-(4-acryloylpiperazin-1-yl)pyridin-2-yl)-6-chloro-10-methyl-1-(6-methyl-4-(trifluoromethyl)pyridin-2-yl)-1,3a,4,5,10,11a-hexahydro-2H-benzo[b]pyrrolo[2,3-f][1,4]diazocine-2,11(3H)-dione]
